Experimental data reported in patent US10125134B2 (Mirati Therapeutics, Inc., priority 2016, dated 2018).
Like-named read-outs stand apart in the source and are kept apart here.

Tests used:
KRas G12C = KRas G12C (Homo sapiens, UniProt P01116, C118S/C51S/C80L/G12C); experiment: KRas G12C Modification Assay (LCMS detection of covalent adduct); type: binding; settings: normalized percent of control; tested at 5 μM concentration for 3 hours
In short: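 Cys-light KRas G12C mutant protein incubated with compound in K-Ras assay buffer, reactions quenched at set time points with 25 mM acetic acid and analysed by intact-protein LC/MS on a C-3 column. Deconvoluted mass heights expressed as percent of control (POC) relative to compound-free protein.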

[1] = tested on: NCI-H358 cells (express KRas G12C), Phospho-ERK; experiment: Cellular inhibition of KRas G12C: Phospho-ERK in NCI-H358 cells; type: cell-based; settings: Homo sapiens, pERK(Thr202/Tyr204) normalized with GAPDH, NCI-H358 cells, 3 hours, read-out: IC50
In short: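 IC50 derived by 4-parameter fit of GAPDH-normalized pERK(Thr202/Tyr204) signal, as percent of DMSO control. Signal came from in-cell immunodetection with infrared secondaries after 3 h compound exposure of KRas G12C NCI-H358 cells at 0.5% DMSO.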

POC (KRas G12C) | SMILES | IC50 ([1]; NCI-H358, 3 h) [µM] | IC50 [1] [µM]
C (“C”>50% POC) | C=CC(=O)N1CCN(c2nc(OCCCN3CCN(C(C)=O)CC3)nc3c2CCN(c2cc(O)cc4ccccc24)C3)CC1 [Example 135, 1-[4-[2-[3-(4-acetylpiperazin-1-yl)propoxy]-7-(3-hydroxy-1-naphthyl)-6,8-dihydro-5H-pyrido[3,4-d]pyrimidin-4-yl]piperazin-1-yl]prop-2-en-1-one] | 0.0001 to 1 | 
C (“C”>50% POC) | C=CC(=O)N1CCN(c2nc(O[C@H](C)CN3CCN(C(C)=O)CC3)nc3c2CCN(c2cc(O)cc4ccccc24)C3)CC1 [Example 36, (R)-1-(4-(2-((1-(4-acetylpiperazin-1-yl)propan-2-yl)oxy)-7-(3-hydroxynaphthalen-1-yl)-5,6,7,8-tetrahydropyrido[3,4-d]pyrimidin-4-yl)piperazin-1-yl)prop-2-en-1-one] | > 1 | 
A (“A”≤25% POC) | C=CC(=O)N1CCN(c2ncnc3c2CCN(c2cccc4ccccc24)C3)CC1 [Example 3, 1-(4-(7-(naphthalen-1-yl)-5,6,7,8-tetrahydropyrido[3,4-d]pyrimidin-4-yl)piperazin-1-yl)prop-2-en-1-one] | > 1 | 
C (“C”>50% POC) | C=CC(=O)N1CCN(c2nc(N3CCN(CCO)CC3)nc3c2CCN(c2cc(O)cc4ccccc24)C3)CC1 [Example 26, 1-(4-(2-(4-(2-hydroxyethyl)piperazin-1-yl)-7-(3-hydroxynaphthalen-1-yl)-5,6,7,8-tetrahydropyrido[3,4-d]pyrimidin-4-yl)piperazin-1-yl)prop-2-en-1-one] | > 1 | 
C (“C”>50% POC) | C=CC(=O)N1CCN(c2nc(OC[C@H]3CCCN3CCO)nc3c2CCN(c2cccc4ccccc24)C3)CC1CC#N (stereo partly drawn) [Example 304, 2-[4-[2-[[(2R)-1-(2-hydroxyethyl)pyrrolidin-2-yl]methoxy]-7-(1-naphthyl)-6,8-dihydro-5H-pyrido[3,4-d]pyrimidin-4-yl]-1-prop-2-enoyl-piperazin-2-yl]acetonitrile] | 0.0001 to 1 | 
C (“C”>50% POC) | CN1CCC[C@H]1COc1nc2c(c(N3CCN(C(=O)/C=C/CN4CCCCC4)[C@@H](CC#N)C3)n1)CCN(c1cccc3ccccc13)C2 [Example 236, 2-((S)-4-(2-(((S)-1-methylpyrrolidin-2-yl)methoxy)-7-(naphthalen-1-yl)-5,6,7,8-tetrahydropyrido[3,4-d]pyrimidin-4-yl)-1-(E-4-(piperidin-1-yl)but-2-enoyl)piperazin-2-yl)acetonitrile] | 0.0001 to 1 | 
C (“C”>50% POC) | C=CC(=O)N1CCN(c2nc(OCCN(CC)CC)nc3c2CCN(c2cc(O)cc4ccccc24)C3)CC1 [Example 102] | 0.0001 to 1 | 
A (“A”≤25% POC) | C=CC(=O)N1CCN(c2nc(O[C@H](C)CN(C)C)nc3c2CCN(c2cc(O)ccc2C(F)(F)F)C3)CC1 [Example 79, (R)-1-(4-(2-((1-(dimethylamino)propan-2-yl)oxy)-7-(5-hydroxy-2-(trifluoromethyl)phenyl)-5,6,7,8-tetrahydropyrido[3,4-d]pyrimidin-4-yl)piperazin-1-yl)prop-2-en-1-one] |  | > 1
C (“C”>50% POC) | C=CC(=O)N1CCN(c2nc(OC[C@@H]3CC(F)(F)CN3C)nc3c2CCN(c2cccc4ccccc24)C3)C[C@@H]1CC#N [Example 445, 2-((S)-1-Acryloyl-4-(2-(((S)-4,4-difluoro-1-methylpyrrolidin-2-yl)methoxy)-7-(naphthalen-1-yl)-5,6,7,8-tetrahydropyrido[3,4-d]pyrimidin-4-yl)piperazin-2-yl)acetonitrile] | 0.0001 to 1 | 
C (“C”>50% POC) | C=CC(=O)N1CCN(c2nc(OC[C@@H]3CCCN3C)nc3c2CCN(c2cccc4cc(F)ccc24)C3)CC1CC#N (stereo partly drawn) [Example 259, 2-[4-[7-(6-fluoro-1-naphthyl)-2-[[(2S)-1-methylpyrrolidin-2-yl]methoxy]-6,8-dihydro-5H-pyrido[3,4-d]pyrimidin-4-yl]-1-prop-2-enoyl-piperazin-2 yl]acetonitrile] | 0.0001 to 1 | 
C (“C”>50% POC) | C=CC(=O)N1CCN(c2nc(OC[C@@H]3CCCN3C)nc3c2CCN(c2cccc4cccc(C(F)(F)F)c24)C3)C[C@@H]1CC#N [Example 433, 2-((S)-1-acryloyl-4-(2-(((S)-1-methylpyrrolidin-2-yl)methoxy)-7-(8-(trifluoromethyl)naphthalen-1-yl)-5,6,7,8-tetrahydropyrido[3,4-d]pyrimidin-4-yl)piperazin-2-yl)acetonitrile] | 0.0001 to 1 | 
C (“C”>50% POC) | C=CC(=O)N1CCN(c2nc(OCCN3CCCCC3)nc3c2CCN(c2cccc4ccccc24)C3)C[C@@H]1CC#N [Example 408, (S)-2-(1-acryloyl-4-(7-(naphthalen-1-yl)-2-(2-(piperidin-1-yl)ethoxy)-5,6,7,8-tetrahydropyrido[3,4-d]pyrimidin-4-yl)piperazin-2-yl)acetonitrile] | 0.0001 to 1 | 
C (“C”>50% POC) | C=CC(=O)N1CCN(c2nc(OCCN3CCCC3)nc3c2CCN(c2cc(O)cc4ccccc24)C3)CC1 [Example 85, 1-(4-(7-(3-hydroxynaphthalen-1-yl)-2-(2-(pyrrolidin-1-yl)ethoxy)-5,6,7,8-tetrahydropyrido[3,4-d]pyrimidin-4-yl)piperazin-1-yl)prop-2-en-1-one] | > 1 | 
C (“C”>50% POC) | C=CC(=O)N1CCN(c2nc(OC[C@@H]3CCCCN3C)nc3c2CCN(c2cc(O)cc4ccccc24)C3)CC1 [Example 196, (S)-1-(4-(7-(3-hydroxynaphthalen-1-yl)-2-((1-methylpiperidin-2-yl)methoxy)-5,6,7,8-tetrahydropyrido[3,4-d]pyrimidin-4-yl)piperazin-1-yl)prop-2-en-1-one] | 0.0001 to 1 | 
C (“C”>50% POC) | C=CC(=O)N1CCN(c2nc(OC[C@@H]3CCCN3C)nc3c2CCN(c2cccc(Cl)c2C(F)(F)F)C3)CC1CC#N (stereo partly drawn) [Example 277, 2-(1-acryloyl-4-(7-(3-chloro-2-(trifluoromethyl)phenyl)-2-(((S)-1-methylpyrrolidin-2-yl)methoxy)-5,6,7,8-tetrahydropyrido[3,4-d]pyrimidin-4-yl)piperazin-2-yl)acetonitrile] | 0.0001 to 1 | 
C (“C”>50% POC) | C=CC(=O)N1CCN(c2nc(OC[C@@H]3CCCN3C)nc3c2CCN(c2cccc4ccccc24)C3)C[C@@H]1CCOC [Example 432, 1-((S)-2-(2-methoxyethyl)-4-(2-(((S)-1-methylpyrrolidin-2-yl)methoxy)-7-(naphthalen-1-yl)-5,6,7,8-tetrahydropyrido[3,4-d]pyrimidin-4-yl)piperazin-1-yl)prop-2-en-1-one] | > 1 | 
A (“A”≤25% POC) | C=CC(=O)N1CCN(c2nc(OCCCN3CCOCC3)nc3c2CCN(c2cc(O)ccc2F)C3)CC1 [Example 42, 1-(4-(7-(2-fluoro-5-hydroxyphenyl)-2-(3-morpholinopropoxy)-5,6,7,8-tetrahydropyrido[3,4-d]pyrimidin-4-yl)piperazin-1-yl)prop-2-en-1-one] |  | > 1
C (“C”>50% POC) | C=CC(=O)N1CCN(c2nc(OCCN3CCC(F)(F)CC3)nc3c2CCN(c2cccc4cccc(Cl)c24)C3)C[C@@H]1CC#N [Example 452, 2-[(2S)-4-[7-(8-chloro-1-naphthyl)-2-[2-(4,4-difluoro-1-piperidyl)ethoxy]-6,8-dihydro-5H-pyrido[3,4-d]pyrimidin-4-yl]-1-prop-2-enoyl-piperazin-2-yl]acetonitrile] | 0.0001 to 1 | 
C (“C”>50% POC) | C=CC(=O)N1CCN(c2nc(OCCN3CCCC[C@H]3C)nc3c2CCN(c2cc(O)cc4ccccc24)C3)CC1 [Example 97, (R)-1-(4-(7-(3-hydroxynaphthalen-1-yl)-2-(2-(2-methylpiperidin-1-yl)ethoxy)-5,6,7,8-tetrahydropyrido[3,4-d]pyrimidin-4-yl)piperazin-1-yl)prop-2-en-1-one] | 0.0001 to 1 | 
C (“C”>50% POC) | C=CC(=O)N1CCN(c2nc(OCC3CCN(CC(=O)N(C)C)C3)nc3c2CCN(c2cc(O)cc4ccccc24)C3)CC1 (centres unmarked) [Example 140, 2-[3-[[7-(3-hydroxy-1-naphthyl)-4-(4-prop-2-enoylpiperazin-1-yl)-6,8-dihydro-5H-pyrido[3,4-d]pyrimidin-2-yl]oxymethyl]pyrrolidin-1-yl]-N,N-dimethyl-acetamide] | > 1 | 
C (“C”>50% POC) | C=CC(=O)N1CCN(c2nc(OC[C@H]3CN(C)CCO3)nc3c2CCN(c2cccc4cccc(Cl)c24)C3)C[C@@H]1CC#N [Example 363, 2-[(2S)-4-[7-(8-chloro-1-naphthyl)-2-[[(2R)-4-methylmorpholin-2-yl]methoxy]-6,8-dihydro-5H-pyrido[3,4-d]pyrimidin-4-yl]-1-prop-2-enoyl-piperazin-2-yl]acetonitrile] | 0.0001 to 1 | 

SMILES | POC (KRas G12C) | IC50 ([1]; NCI-H358, 3 h) [µM] | IC50 [1] [µM]
C=CC(=O)N1CCN(c2nc(OC[C@@H]3C[C@@H](F)CN3C)nc3c2CCN(c2cccc4ccccc24)C3)CC1CC#N (stereo partly drawn) [Example 220, 2-(1-acryloyl-4-(2-(((2 S,4R)-4-fluoro-1-methylpyrrolidin-2-yl)methoxy)-7-(naphthalen-1-yl)-5,6,7,8-tetrahydropyrido[3,4-d]pyrimidin-4-yl)piperazin-2-yl)acetonitrile] | C (“C”>50% POC) |  | 0.0001 to 1
